Laboratory results taken from the NIST ThermoML archive (doi:10.1021/je500784s).
“And” between values parts separate entries of the source, which are not always exact repeats. Equal entries are not always repeated.

Assays:
[1] = for vapor or sublimation pressure: Transpiration method; for Normal melting temperature: DTA
[2] = Molar enthalpy of transition or fusion; settings: Crystal; DSC

Cc1cccc(Br)c1 [1-bromo-3-methylbenzene]
[1], Liquid
Settings	vapor or sublimation pressure
274.2 K	0.02006 kPa
276.2 K	0.0234 kPa
278.2 K	0.02748 kPa
278.3 K	0.02776 kPa
279.2 K	0.0289 kPa
280.3 K	0.03259 kPa
281.3 K	0.0351 kPa
282.2 K	0.03686 kPa
282.5 K	0.03833 kPa
284.2 K	0.0421 kPa and 0.04171 kPa
287.2 K	0.05299 kPa
287.3 K	0.0526 kPa
290.2 K	0.06611 kPa
290.4 K	0.06761 kPa
293.2 K	0.08432 kPa
293.6 K	0.08569 kPa
296.2 K	0.09718 kPa
296.7 K	0.1039 kPa
299.2 K	0.1199 kPa
299.8 K	0.1279 kPa
302.2 K	0.1478 kPa
302.8 K	0.1548 kPa
305.2 K	0.18 kPa
308.2 K	0.2084 kPa and 0.2115 kPa and 0.2068 kPa

Cc1ccc(I)c(C)c1 [1-iodo-2,4-dimethylbenzene]
[1], Liquid
Settings	vapor or sublimation pressure
293.5 K	0.00972 kPa
298.4 K	0.01434 kPa
301.4 K	0.01827 kPa
303.4 K	0.02175 kPa
306.3 K	0.02654 kPa
308.3 K	0.03017 kPa
311.3 K	0.03876 kPa
313.3 K	0.04322 kPa
316.4 K	0.05407 kPa
318.6 K	0.06284 kPa
321.4 K	0.07438 kPa
323.4 K	0.08333 kPa
326.4 K	0.1058 kPa and 0.1032 kPa
328.5 K	0.1158 kPa

Cc1cccc(C)c1I [1-iodo-2,6-dimethylbenzene]
[1], Liquid
Settings	vapor or sublimation pressure [kPa]
284.5 K	0.005
288.4 K	0.00709
291.6 K	0.00925
296.5 K	0.014
298.4 K	0.01572
299.5 K	0.01696
301.5 K	0.01972
303.3 K	0.02303
306.4 K	0.02867
308.3 K	0.03267
311.4 K	0.04222
313.6 K	0.04835
316.4 K	0.05818
318.4 K	0.06657
321.2 K	0.08028
323.4 K	0.09228
326.3 K	0.1123
328.5 K	0.1277
331.3 K	0.1526
333.4 K	0.1721

Cc1ccccc1I [1-iodo-2-methylbenzene]
[1], Liquid
Settings	vapor or sublimation pressure [kPa]
283.2 K	0.01623
288.2 K	0.02387
293.2 K	0.0355
301.2 K	0.06212
304.2 K	0.07615
307.4 K	0.0943
310.3 K	0.1131
313.1 K	0.1354
316.2 K	0.1655
319.3 K	0.1983
322.1 K	0.2325
325.1 K	0.2843

Cc1cccc(I)c1 [1-iodo-3-methylbenzene]
[1], Liquid
Settings	vapor or sublimation pressure
275.7 K	0.00715 kPa
279.3 K	0.00936 kPa
281.9 K	0.01131 kPa
283.5 K	0.01241 kPa
286.4 K	0.0157 kPa
289.3 K	0.01945 kPa and 0.01996 kPa
293.1 K	0.02757 kPa
293.2 K	0.02683 kPa
298.1 K	0.0403 kPa
298.2 K	0.03887 kPa
302.9 K	0.05424 kPa and 0.05679 kPa
308 K	0.07665 kPa and 0.07718 kPa
313.1 K	0.1065 kPa

Cc1cccc(C)c1Br [2-bromo-1,3-dimethylbenzene]
[1], Liquid
Settings	vapor or sublimation pressure
274.2 K	0.00695 kPa
276.2 K	0.0084 kPa
278.3 K	0.01013 kPa
281.2 K	0.01282 kPa
284.2 K	0.0161 kPa
287.2 K	0.02071 kPa
290.2 K	0.02551 kPa
293.3 K	0.0317 kPa and 0.03214 kPa
293.4 K	0.03244 kPa
296.3 K	0.03998 kPa
299.3 K	0.04922 kPa
302.2 K	0.06313 kPa
305.3 K	0.07815 kPa

Cc1ccccc1Br [2-bromotoluene]
[1], Liquid
Settings	vapor or sublimation pressure
281.2 K	0.04946 kPa
284.2 K	0.06067 kPa
285.2 K	0.06568 kPa
287.2 K	0.07592 kPa and 0.07526 kPa
290.2 K	0.09238 kPa
293.2 K	0.1131 kPa
296.2 K	0.1381 kPa
299.2 K	0.1684 kPa
302.2 K	0.2053 kPa
305.2 K	0.25 kPa
308.2 K	0.3008 kPa [middle of 4 runs]
313.1 K	0.3903 kPa [middle of 6 runs]

Cc1ccc(Br)cc1 [4-bromotoluene]
[1]
Settings	vapor or sublimation pressure [kPa]
274.5 K, Crystal	0.01409
277.2 K, Crystal	0.01853
278.3 K, Crystal	0.02013
280.2 K, Crystal	0.02439
282.2 K, Crystal	0.02935
283.2 K, Crystal	0.0328
285.5 K, Crystal	0.04128
286.2 K, Crystal	0.04379
288.3 K, Crystal	0.05178
289.6 K, Crystal	0.05809
291.2 K, Crystal	0.06948
294.3 K, Crystal	0.08957
297.3 K, Crystal	0.1161
298.2 K, Crystal	0.1223
299.2 K, Crystal	0.1357
300.8 K, Crystal	0.1543
301.9 K, Liquid	0.1746
304.2 K, Liquid	0.1989
304.9 K, Liquid	0.2137
307.2 K, Liquid	0.2422
310.3 K, Liquid	0.2964
313.2 K, Liquid	0.3477
314.4 K, Liquid	0.3671
316.3 K, Liquid	0.4044
317.5 K, Liquid	0.4335
319.3 K, Liquid	0.4827
320.6 K, Liquid	0.507
322.4 K, Liquid	0.5742
325.3 K, Liquid	0.6696
328.2 K, Liquid	0.7835
331.3 K, Liquid	0.8879
332.3 K, Liquid	0.9409
335.3 K, Liquid	1.1

Settings	Normal melting temperature [°C]
[1], Crystal	28.2

Settings	Molar enthalpy of transition or fusion [kcal/mol]
[2]	3.56

Cc1ccc(I)cc1 [4-iodotoluene]
[1]
Settings	vapor or sublimation pressure
279.5 K, Crystal	0.00537 kPa
283.3 K, Crystal	0.008 kPa
286.3 K, Crystal	0.01101 kPa
289.4 K, Crystal	0.01456 kPa
293.2 K, Crystal	0.0205 kPa and 0.02183 kPa
298.1 K, Crystal	0.0335 kPa
303 K, Crystal	0.0526 kPa
308 K, Liquid	0.08115 kPa
311 K, Liquid	0.09922 kPa
315 K, Liquid	0.1261 kPa
319.1 K, Liquid	0.1599 kPa
323.2 K, Liquid	0.2025 kPa
328.1 K, Liquid	0.2776 kPa
332.9 K, Liquid	0.3665 kPa

Settings	Normal melting temperature [°C]
[1], Crystal	34.4

Settings	Molar enthalpy of transition or fusion [kcal/mol]
[2]	3.59

Brc1ccccc1 [bromobenzene]
[1], Liquid
Settings	vapor or sublimation pressure [kPa]
276.4 K	0.1345
278.3 K	0.1534
282.2 K	0.1957
283.1 K	0.2092
285.4 K	0.2487
286.2 K	0.2532
288.3 K	0.2954
289.3 K	0.3211
291.4 K	0.3549
292.4 K	0.3794
293.2 K	0.4046
294.4 K	0.4413
295.5 K	0.4596
297.4 K	0.5225
300.4 K	0.6407
303.4 K	0.7604

Ic1ccccc1 [iodobenzene]
[1], Liquid
Settings	vapor or sublimation pressure [kPa]
283.8 K	0.05269
286.8 K	0.06386
289.9 K	0.08034
293 K	0.09644
294 K	0.1029
296.8 K	0.1261
299.6 K	0.1487
302.6 K	0.1853
305.7 K	0.2226
308.7 K	0.2722
311.8 K	0.3239
314.6 K	0.3944
